The values that follow come from patent publication US20040156869A1, “2-substituted quinazolin-4-ylamine analogues” (Neurogen Corporation, priority 2002, published 2004).

As a reminder, the Ki is a dissociation constant, usually derived from enzyme kinetics or from competition with a known ligand. Read a high Ki as weaker binding.

Sequence of human capsaicin receptor (VR1) (Q8NER1 whole entry): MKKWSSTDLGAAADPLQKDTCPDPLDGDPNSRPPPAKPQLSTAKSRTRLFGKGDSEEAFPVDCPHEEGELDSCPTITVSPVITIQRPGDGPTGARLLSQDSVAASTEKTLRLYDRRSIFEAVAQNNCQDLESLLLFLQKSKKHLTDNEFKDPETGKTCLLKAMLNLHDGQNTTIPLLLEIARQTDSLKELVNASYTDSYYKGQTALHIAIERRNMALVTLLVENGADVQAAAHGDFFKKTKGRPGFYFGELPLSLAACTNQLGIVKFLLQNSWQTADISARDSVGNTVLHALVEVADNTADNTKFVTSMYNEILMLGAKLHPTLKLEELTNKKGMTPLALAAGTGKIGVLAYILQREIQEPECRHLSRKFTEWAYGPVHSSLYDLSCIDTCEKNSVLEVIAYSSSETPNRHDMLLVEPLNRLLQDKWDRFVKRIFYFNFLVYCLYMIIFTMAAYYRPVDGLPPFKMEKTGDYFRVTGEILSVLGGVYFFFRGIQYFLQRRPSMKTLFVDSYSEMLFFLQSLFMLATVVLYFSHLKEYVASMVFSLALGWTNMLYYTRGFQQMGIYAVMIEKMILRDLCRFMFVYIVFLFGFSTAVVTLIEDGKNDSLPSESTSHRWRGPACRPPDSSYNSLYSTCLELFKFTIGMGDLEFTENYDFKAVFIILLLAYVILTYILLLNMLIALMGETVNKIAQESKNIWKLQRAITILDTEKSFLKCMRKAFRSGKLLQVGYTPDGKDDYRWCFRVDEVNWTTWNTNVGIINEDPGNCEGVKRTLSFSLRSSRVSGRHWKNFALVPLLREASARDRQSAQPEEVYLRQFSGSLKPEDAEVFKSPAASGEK

This test has as its target human capsaicin receptor (VR1) (Homo sapiens, UniProt Q8NER1). In words: Capsaicin receptor binding assay ([3H]RTX competition, VR1-transfected HEK293 membranes).
Compound `CCCCOc1ccc(Nc2nc(COCC(C)C)nc3nc(-c4ncccc4Cl)ccc23)cc1` [Compound 278, (4-Butoxy-phenyl)-[7-(3-chloro-pyridin-2-yl)-2-isobutoxymethyl-pyrido[2,3-d]pyrimidin-4-yl]-amine] returned a Ki below 1000 nM. In turn, `CC(C)OCc1nc(Nc2ccc(S(N)(=O)=O)cc2)c2ccc(-c3ncccc3Cl)nc2n1` [Compound 279, 4-{7-(3-Chloro-pyridin-2-yl)-2-isopropoxymethyl-pyrido[2,3-d]pyrimidin-4-ylamino]-benzenesulfonamide] gave a Ki below 1000 nM. Consider `CCCC(=O)c1ccc(Nc2nc(COCC(C)C)nc3nc(-c4ncccc4Cl)ccc23)cc1` [Compound 280, 1-{4-[7-(3-Chloro-pyridin-2-yl)-2-isobutoxymethyl-pyrido[2,3-d]pyrimidin-4-ylamino]-phenyl}-butan-1-one], for which the Ki was below 1000 nM. In turn, `CCOC(=O)Cc1ccc(Nc2nc(COCC(C)C)nc3nc(-c4ncccc4Cl)ccc23)cc1` [Compound 283, {4-[7-(3-Chloro-pyridin-2-yl)-2-isobutoxymethyl-pyrido[2,3-d]pyrimidin-4-ylamino]-phenyl}-acetic acid ethyl ester] had a Ki below 1000 nM.

For the compound `CC(C)COCc1nc(Nc2ccc(CC(=O)O)cc2)c2ccc(-c3ncccc3Cl)nc2n1` [Compound 284, {4-[7-(3-Chloro-pyridin-2-yl)-2-isobutoxymethyl-pyrido[2,3-d]pyrimidin-4-ylamino]-phenyl}-acetic acid], the Ki was below 1000 nM.

`COc1cc(Nc2nc(COCC(C)C)nc3nc(-c4ncccc4Cl)ccc23)ccc1F` [Compound 285, [7-(3-Chloro-pyridin-2-yl)-2-isobutoxymethyl-pyrido[2,3-d]pyrimidin-4-yl]-(4-fluoro-3-methoxy-phenyl)-amine] displayed a Ki below 1000 nM. In turn, `OCc1cc2nc(-c3ncccc3C(F)(F)F)ccc2c(Nc2ccc(C(F)(F)F)cc2)n1` [Compound 286, [5-(4-Trifluoromethyl-phenylamino)-2-(3-trifluoromethyl-pyridin-2-yl)-[1,6]naphthyridin-7-yl]-methanol] yielded a Ki below 1000 nM. The compound `COCc1nc(Nc2ccc(Cl)cc2)c2ccc(-c3ncccc3C(F)(F)F)nc2n1` [Compound 287, (4-Chloro-phenyl)-[2-methoxymethyl-7-(3-trifluoromethyl-pyridin-2-yl)-pyrido[2,3-d]pyrimidin-4-yl]-amine] yielded a Ki below 1000 nM. For the compound `COCc1nc(Nc2ccc(C#N)cc2)c2ccc(-c3ncccc3C(F)(F)F)nc2n1` [Compound 288, 4-[2-Methoxymethyl-7-(3-trifluoromethyl-pyridin-2-yl)-pyrido[2,3-d]pyrimidin-4-ylamino]-benzonitrile], the Ki is below 1000 nM. The compound `COCc1nc(Nc2ccc(C(C)=O)cc2)c2ccc(-c3ncccc3C(F)(F)F)nc2n1` [Compound 289, 1-{4-[2-Methoxymethyl-7-(3-trifluoromethyl-pyridin-2-yl)-pyrido[2,3-d]pyrimidin-4-ylamino]-phenyl}-ethanone] had a Ki below 1000 nM. As for `COCc1nc(Nc2ccc(C(C)(C)C#N)cc2)c2ccc(-c3ncccc3C(F)(F)F)nc2n1` [Compound 290, 2-{4-[2-Methoxymethyl-7-(3-trifluoromethyl-pyridin-2-yl)-pyrido[2,3-d]pyrimidin-4-ylamino]-phenyl}-2-methyl-propionitrile], the Ki is below 1000 nM. As for `COCc1nc(Nc2ccc(F)c(F)c2)c2ccc(-c3ncccc3C(F)(F)F)nc2n1` [Compound 291, (3,4-Difluoro-phenyl)-[2-methoxymethyl-7-(3-trifluoromethyl-pyridin-2-yl)-pyrido[2,3-d]pyrimidin-4-yl]-amine], the Ki is below 1000 nM. Compound `COCc1nc(Nc2ccc(Cl)c(F)c2)c2ccc(-c3ncccc3C(F)(F)F)nc2n1` [Compound 292, (4-Chloro-3-fluoro-phenyl)-[2-methoxymethyl-7-(3-trifluoromethyl-pyridin-2-yl)-pyrido[2,3-d]pyrimidin-4-yl]-amine] came in with a Ki below 1000 nM. Compound `COCc1nc(Nc2ccc(Cl)c(C)c2)c2ccc(-c3ncccc3C(F)(F)F)nc2n1` [Compound 293, (4-Chloro-3-methyl-phenyl)-[2-methoxymethyl-7-(3-trifluoromethyl-pyridin-2-yl)-pyrido[2,3-d]pyrimidin-4-yl]-amine] had a Ki below 1000 nM.

Compound `COCc1nc(Nc2ccc(Cl)c(C(F)(F)F)c2)c2ccc(-c3ncccc3C(F)(F)F)nc2n1` [Compound 294] displayed a Ki below 1000 nM. `COCc1cc2nc(-c3ncccc3C(F)(F)F)ccc2c(Nc2ccc(C(F)(F)F)cc2)n1` [Compound 295, [7-Methoxymethyl-2-(3-trifluoromethyl-pyridin-2-yl)-[1,6]naphthyridin-5-yl]-(4-trifluoromethyl-phenyl)-amine] displayed a Ki below 1000 nM.

For `CC(C)COCc1cc2nc(-c3ncccc3C(F)(F)F)ccc2c(Nc2ccc(C(F)(F)F)cc2)n1` [Compound 296, [7-Isobutoxymethyl-2-(3-trifluoromethyl-pyridin-2-yl)-[1,6]naphthyridin-5-yl]-(4-trifluoromethyl-phenyl)-amine], the Ki was below 1000 nM. `COCc1cc(Nc2ccc(C(F)(F)F)cc2)c2ccc(-c3ncccc3C(F)(F)F)nc2n1` [Compound 297, [2-Methoxymethyl-7-(3-trifluoromethyl-pyridin-2-yl)-[1,8]naphthyridin-4-yl]-(4-trifluoromethyl-phenyl)-amine]: the Ki is below 1000 nM. Compound `COCc1cc(Nc2ccc(C(C)(C)C)cc2)c2ccc(-c3ncccc3C(F)(F)F)nc2n1` [Compound 298, (4-tert-Butyl-phenyl)-[2-methoxymethyl-7-(3-trifluoromethyl-pyridin-2-yl)-[1,8]naphthyridin-4-yl]-amine] yielded a Ki below 1000 nM. Compound `COCc1nc2nc(-c3ncccc3C(F)(F)F)ccc2c(Nc2ccc(C(F)(F)F)cc2)c1C(=O)OC` [Compound 299, 2-Methoxymethyl-4-(4-trifluoromethyl-phenylamino)-7-(3-trifluoromethyl-pyridin-2-yl)-[1,8]naphthyridine-3-carboxylic acid methyl ester] showed a Ki below 1000 nM. The compound `OCc1cc(Nc2ccc(C(F)(F)F)cc2)c2ccc(-c3ncccc3C(F)(F)F)nc2n1` [Compound 300, [4-(4-Trifluoromethyl-phenylamino)-7-(3-trifluoromethyl-pyridin-2-yl)-[1,8]naphthyridin-2-yl]-methanol] showed a Ki below 1000 nM. The figure for `CC(C)COCc1cc(Nc2ccc(C(F)(F)F)cc2)c2ccc(-c3ncccc3C(F)(F)F)nc2n1` [Compound 301, [2-Isobutoxymethyl-7-(3-trifluoromethyl-pyridin-2-yl)-[1,8]naphthyridin-4-yl]-(4-trifluoromethyl-phenyl)-amine] is below 1000 nM; for `COCc1cc(Nc2ccc(Cl)cc2)c2ccc(-c3ncccc3C(F)(F)F)nc2n1` [Compound 302, (4-Chloro-phenyl)-[2-methoxymethyl-7-(3-trifluoromethyl-pyridin-2-yl)-[1,8]naphthyridin-4-yl]-amine] it is below 1000 nM. Compound `COCc1cc(Nc2ccc(F)cc2)c2ccc(-c3ncccc3C(F)(F)F)nc2n1` [Compound 303, (4-Fluoro-phenyl)-[2-methoxymethyl-7-(3-trifluoromethyl-pyridin-2-yl)-[1,8]naphthyridin-4-yl]-amine] gave a Ki below 1000 nM. Regarding `COCc1cc(Nc2ccc(Cl)c(F)c2)c2ccc(-c3ncccc3C(F)(F)F)nc2n1` [Compound 304, (4-Chloro-3-fluoro-phenyl)-[2-methoxymethyl-7-(3-trifluoromethyl-pyridin-2-yl)-[1,8]naphthyridin-4-yl]-amine], the Ki was below 1000 nM. In turn, `COCc1cc(Nc2ccc(C#N)cc2)c2ccc(-c3ncccc3C(F)(F)F)nc2n1` [Compound 305, 4-[2-Methoxymethyl-7-(3-trifluoromethyl-pyridin-2-yl)-[1,8]naphthyridin-4-ylamino]-benzonitrile] showed a Ki below 1000 nM. The figure for `COCc1cc(Nc2ccc(S(=O)(=O)C(C)C)cc2)c2ccc(-c3ncccc3C(F)(F)F)nc2n1` [Compound 306, [2-Methoxymethyl-7-(3-trifluoromethyl-pyridin-2-yl)-[1,8]naphthyridin-4-yl]-[4-(propane-2-sulfonyl)-phenyl]-amine] is below 1000 nM; for `COCc1cc(Nc2ccc(C(F)(F)F)cn2)c2ccc(-c3ncccc3C(F)(F)F)nc2n1` [Compound 307, [2-Methoxymethyl-7-(3-trifluoromethyl-pyridin-2-yl)-[1,8]naphthyridin-4-yl]-(5-trifluoromethyl-pyridin-2-yl)-amine] it is below 1000 nM. As for `COCc1cc(Nc2ccc(S(=O)(=O)C(F)(F)F)cc2)c2ccc(-c3ncccc3C(F)(F)F)nc2n1` [Compound 308, [2-Methoxymethyl-7-(3-trifluoromethyl-pyridin-2-yl)-[1,8]naphthyridin-4-yl]-(4-trifluoromethanesulfonyl-phenyl)-amine], the Ki is below 1000 nM. `CN(C)CCOCc1cc(Nc2ccc(C(F)(F)F)cc2)c2ccc(-c3ncccc3C(F)(F)F)nc2n1` [Compound 309, [2-(2-Dimethylamino-ethoxymethyl)-7-(3-trifluoromethyl-pyridin-2-yl)-[1,8]naphthyridin-4-yl]-(4-trifluoromethyl-phenyl)-amine] had a Ki below 1000 nM. The figure for `CCOCc1cc(Nc2ccc(C(F)(F)F)cc2)c2ccc(-c3ncccc3C(F)(F)F)nc2n1` [Compound 310, [2-Ethoxymethyl-7-(3-trifluoromethyl-pyridin-2-yl)-[1,8]naphthyridin-4-yl]-(4-trifluoromethyl-phenyl)-amine] is below 1000 nM; for `CC(C)OCc1cc(Nc2ccc(C(F)(F)F)cc2)c2ccc(-c3ncccc3C(F)(F)F)nc2n1` [Compound 311, [2-Isopropoxymethyl-7-(3-trifluoromethyl-pyridin-2-yl)-[1,8]naphthyridin-4-yl]-(4-trifluoromethyl-phenyl)-amine] it is below 1000 nM. Turning to `CC(C)CCOCc1cc(Nc2ccc(C(F)(F)F)cc2)c2ccc(-c3ncccc3C(F)(F)F)nc2n1` [Compound 312, [2-(3-Methyl-butoxymethyl)-7-(3-trifluoromethyl-pyridin-2-yl)-[1,8]naphthyridin-4-yl]-(4-trifluoromethyl-phenyl)-amine], the Ki was below 1000 nM.
